This is an account of results in patent US11324832B2, “Tripartite modulators of endosomal G protein-coupled receptors” (Endosome Therapeutics, Inc., priority 2015, dated 2022).

Where a SMILES comes first, the peptide text is derived from it. [ ]: non-standard residue; d: D form. The star is where a group is joined. X1 = CC(C)CCC[C@@H](C)[C@H]1CC[C@H]2[C@@H]3CC[C@H]4C[C@@H](O*)CC[C@]4(C)[C@H]3CC[C@]12C; PEG4 = NCCOCCOCCOCCOCCC(=O)O; PEG3 = NCCOCCOCCOCCC(=O)O

Series [1] deals with motor coordination of mice. Briefly: Rotarod. The settings on record: i.t. 50 μM. It is filed as in vivo, mouse. As to the method:
Mice were acclimatized by 3 trials on 2 successive days before experiments. Mice were trained to remain on the rotarod for three consecutive periods. On the experimental day, three baseline time trials (cut-off 120 s) were recorded. […] After 30 min, mice were placed on the rotarod with accelerating velocity for up to 120 s. Times were recorded in 3 successive trials, and latency time to fall was determined at 30, 90 and 120 min

The test system of the next series is NK1R. Nature of the series: NK1R endocytosis in rat spinal neurons in vivo. The settings on record: lamina I neurons; i.t. 50 μM 30 min before intraplantar capsaicin; 10 min after capsaicin. As to the method:
The spinal cord was collected 10 min later for localization of the NK1R. In controls (intrathecal, intraplantar vehicle), NK1R-IR was mostly at the plasma membrane of the soma and neurites of lamina I neurons (80.7±1.6% of total NK1R-IR within […] of the soma plasma membrane).
After 10 min, rats were transcardially perfused with PBS and then 4% PFA. The spinal cord was removed, immersion fixed in PFA (2 h, 4° C.), and cryoprotected (30% sucrose, PBS, 24 h, 4° C.). The spinal cord (T12 to L4) was embedded in OCT and […] serial coronal sections were cut into 48-well plates containing PBS. Free-floating sections were blocked in PBS containing 10% normal horse serum (1 h, RT). Sections were incubated with mouse anti-NeuN (1:20,000; AbCam) and either rabbit anti-NK1R (1:5,000, #94168) or rabbit anti-pERK (1:200; Cell Signaling Technology) in PBS containing 3% normal horse serum (48 h, 4° C.). Sections were washed (4×20 min in PBS) and incubated with donkey anti-rabbit Alexa488 (1:8,000) and donkey anti-mouse Alexa568 (1:2,000 (Life Technologies) (1 h, RT). Sections were washed, incubated with DAPI (10 μg/ml, 5 min), and mounted in Vectashield (Vector Laboratories).
Tissues and cells were observed using a Leica SP8 confocal microscope using HCX PL APO 40× (NA 1.30) and HCX PL APO 63× (NA 1.40) oil objectives. Z stacks were collected of NKiR-positive neurons in lamina I of the dorsal horn. Video projections of Z stacks were made using Imaris Software (Bitplane). NK1R endocytosis and pERK expression were quantified using ImageJ. To quantify NK1R internalization in lamina I neurons, the border of the cytoplasm of the neuronal soma was defined by NeuN fluorescence, and NK1R fluorescence within 5 pixels (0.5 μm) of the border was defined as plasma membrane-associated receptor. The ratio of plasma membrane to cytosolic NK1R-IR fluorescence was determined in >6 lamina I neurons per condition. To quantify ERK activation, the ratio of the number of pERK-IR neurons to total Neu-N-positive neurons in lamina I was determined in >6 fields (×40 objective) per condition.

In the next series the test system is ERK. Briefly: ERK phosphorylation in rat lamina I dorsal horn neurons in vivo. The settings on record: i.t. 30 min before intraplantar capsaicin. As for the experimental part: Painful peripheral stimuli activate ERK in NKiR-expressing spinal neurons, which coincides with receptor endocytosis and contributes to hyperalgesia. Intraplantar capsaicin stimulated ERK phosphorylation in lamina I dorsal horn neurons (FIG. 5B). […] Thus, capsaicin stimulates clathrin- and dynamin-dependent NK1R endocytosis and ERK activation in spinal neurons in vivo.
After 10 min, rats were transcardially perfused with PBS and then 4% PFA. The spinal cord was removed, immersion fixed in PFA (2 h, 4° C.), and cryoprotected (30% sucrose, PBS, 24 h, 4° C.). The spinal cord (T12 to L4) was embedded in OCT and […] serial coronal sections were cut into 48-well plates containing PBS. Free-floating sections were blocked in PBS containing 10% normal horse serum (1 h, RT). […]
Tissues and cells were observed using a Leica SP8 confocal microscope using HCX PL APO 40× (NA 1.30) and HCX PL APO 63× (NA 1.40) oil objectives. […] NK1R endocytosis and pERK expression were quantified using ImageJ. To quantify NK1R internalization in lamina I neurons, the border of the cytoplasm of the neuronal soma was defined by NeuN fluorescence, and NK1R fluorescence within 5 pixels (0.5 μm) of the border was defined as plasma membrane-associated receptor. The ratio of plasma membrane to cytosolic NK1R-IR fluorescence was determined in >6 lamina I neurons per condition. […]

Series [2] deals with NK1R-positive neurons in lamina I of the dorsal horn. Nature of the series: Cell-attached patch clamp recordings in rat spinal cord slices. Format: cell-based. As for the experimental part:
To evaluate whether NK1R endosomal signaling mediates this sustained activation, cell-attached patch clamp recordings were made from NKiR-positive neurons in lamina I of the dorsal horn in slices of rat spinal cord. […] These findings support a role for NK1R endocytosis in persistent neuronal excitation.
Parasagittal slices (340-400 μm) were prepared using a vibratome from the lumbar region of the rat spinal cord in ice-cold sucrose-based artificial CSF (sACSF) (mM: 100 sucrose, 63 NaCl, 2.5 KCl, 1.2 NaH2PO4, 1.2 MgCl2, 25 glucose, 25 NaHCO3; 95% O2/5% CO2). Slices were transferred to N-Methyl-D-Glucamine (NMDG)-based recovery ACSF (rACSF) (mM: 93 NMDG, 93 HCl, 2.5 KCl, 1.2 NaH2PO4, 30 NaHCO3, 20 HEPES, 25 glucose, 5 Na ascorbate, 2 thiourea, 3 Na pyruvate, 10 MgSO4, 0.5 CaCl2; 95% O2/5% CO2, 15 min, 34° C.). Slices were transferred to normal ACSF (mM: 125 NaCl, 2.5 KCl, 1.25 NaH2PO4, 1.2 MgCl2, 2.5 CaCl2, 25 glucose, 11 NaHCO3; 95% O2/5% CO2) containing 10 μM MK-801 (45 min, 34° C.), then maintained at RT.
Slices of rat spinal cord were transferred to a recording chamber and superfused with normal ACSF (2 ml·min^−1, 36° C.). […] PS2 was not soluble in the low concentrations of DMSO required for electrophysiology. Large, NKiR-positive, presumed nociceptive lamina I neurons were visually identified as described (Imlach, W. L., et al., Molecular Pharmacology, 2015, 88, 460-428). Spontaneous currents were recorded in cell-attached configuration (Multiclamp 700B, Molecular Devices, Sunnyvale, Calif.), sampled at 10 kHz, high pass filtered at 1 Hz, and capacitatively coupled action potential events were analyzed using Axograph X, V 1.4.4 (Axograph). Patch electrodes (resistance 2.5-3.5 MQ) contained KMES-based internal solution (mM: 105 KMES, 20 NaCl, 5 HEPES, 10 BAPTA, 1.5 MgCl2, 4 MgATP, 0.4 NaGTP, 0.1% biocytin; 285-295 mosmol·l^−1) to facilitate subsequent recordings of action potential properties in whole-cell configuration. Recordings were made in the presence of CNQX (6-cyano-7-nitroquinoxaline-2,3-dione) (10 μM; AMPA/kainate receptor antagonist), picrotoxin (100 μM; GABAA receptor antagonist), strychnine (0.5 μM; glycine and acetylcholine receptor antagonist), and AP5 ((2R)-amino-5-phosphonovaleric acid; (2R)-amino-5-phosphonopentanoate) (100 μM; NMDA receptor antagonist) to minimize presynaptic influences on action potential properties. […] Recordings were sampled at 10 kHz and filtered with a high pass filter at 1 Hz and firing rate was measured in two-minute interval bins. At the end of each cell-attached recording, whole-cell recordings were made in current-clamp mode to confirm retention of normal action potential firing. Data were only included in the analysis if cells had action potential amplitudes that were ≥50 mV above threshold to ensure viable neurons were included. Cells were filled with biocytin and sections were processed to confirm NK1R expression by immunofluorescence. […] The firing time was determined as the duration of the response to last action potential. To assess synaptic transmission, whole-cell configuration recordings were made under control conditions or after exposure to Dy4 or Dy4 inact; a bipolar stimulating electrode was placed at the dorsal root entry zone, and electrically-evoked excitatory postsynaptic currents recorded as described (Imlach, W. L., et al., Molecular Pharmacology, 2015, 88, 460-428).

Setting [3] is: 30 μM, preincubated 10 min, SP 1 μM, 2 min.
The mark [4] stands for this setting: 1 μM for 60 min, washed, 60 min antagonist-free, then SP.

Turning to `O=C1NC(=NS(=O)(=O)c2cccc3ccccc23)S/C1=C\c1ccc(Br)cc1` [PS2], in series [1], the “effect on rotarod latency” value is given as “did not affect”. In the series on NK1R, the “NK1R-IR at plasma membrane (% membrane)” value is given as 69.0±1.1%. Further, the “effect on capsaicin-evoked activation of spinal ERK” value in the series on ERK is “prevented capsaicin-evoked activation of spinal ERK”.
Regarding `O=C(N/N=C/c1cc(O)c(O)cc1O)c1cc2ccccc2cc1O` [Dy4], the “effect on rotarod latency” value in series [1] is reported as “did not affect”. In addition, in the series on NK1R, the “NK1R-IR at plasma membrane (% membrane)” value was 59.6±0.2%. In series [2] (setting [3]), the “effect on initial SP-evoked excitation” value is given as “did not affect the initial excitation” and the “effect on sustained action potential discharge after SP removal” value was “prevented the sustained action potential discharge”. Besides, in series [2] (slices of rat spinal cord), the “effect on glutaminergic primary afferent synaptic transmission and synaptic rundown” value is “did not affect”. For the same molecule, the “effect on capsaicin-evoked activation of spinal ERK” value with ERK is reported as “prevented capsaicin-evoked activation of spinal ERK”.
For the molecule `CC(=O)N[C@@H](CC(=O)O[C@H]1CC[C@@]2(C)[C@@H](CC[C@@H]3[C@@H]2CC[C@]2(C)[C@@H]([C@H](C)CCCC(C)C)CC[C@@H]32)C1)C(=O)NCCOCCOCCOCCOCCC(=O)NCCOCCOCCOCCC(=O)NCCOCCOCCOCCOCCC(=O)N[C@H](CCCNC(=N)N)C(=O)N1CCC[C@H]1C(=O)N[C@@H](CCCCN)C(=O)N1CCC[C@H]1C(=O)N[C@@H](CCC(N)=O)C(=O)N[C@@H](CCC(N)=O)C(=O)N[C@H](Cc1c[nH]c2ccccc12)C(=O)N[C@@H](Cc1ccccc1)C(=O)N[C@H](Cc1c[nH]c2ccccc12)C(=O)N[C@@H](CC(C)C)C(=O)N[C@@H](CC(C)C)C(N)=O` [Compound 1] (Ac-D(X1)[PEG4][PEG3][PEG4][dR]PKPQQ[dW]F[dW]LL-NH2), in series [2] (setting [4]), the “effect on initial SP-evoked excitation” value was “did not suppress the initial excitation” and the “effect on sustained action potential discharge after SP removal” value is “prevented the action potential discharge”. Besides, in series [2] (1 μM for 60 min, washed, 60 min antagonist-free, then SP, P>0.05), the “SP-evoked firing rate, response at 2 min” value is 196.6±81.6 events. 2 min^−1.
